PubChem BioAssay (NCI)
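The compound was tested at five concentrations on cells cultured in 96-well plates, with a 48-hour exposure period. GI50: concentration for 50% inhibition of growth. Definition used: TGI = concentration required for complete inhibition of growth.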

Tests used:
Experiment in all cases: NCI-60 cell line screen, 48 h
SW-620 colon = system: SW-620 colon
SNB-75 CNS = system: SNB-75 CNS
M14 melanoma = system: M14 melanoma
EKVX NSCLC = system: EKVX NSCLC
UACC-62 melanoma = system: UACC-62 melanoma
KM12 colon = system: KM12 colon
COLO 205 colon = system: COLO 205 colon
MALME-3M melanoma = system: MALME-3M melanoma
OVCAR-8 ovarian = system: OVCAR-8 ovarian
IGROV1 ovarian = system: IGROV1 ovarian

Row | Compound | GI50 (SW-620 colon) | TGI (SW-620 colon) | GI50 (SNB-75 CNS) | TGI (SNB-75 CNS) | GI50 (M14 melanoma) | TGI (M14 melanoma) | GI50 (EKVX NSCLC) | TGI (EKVX NSCLC) | GI50 (UACC-62 melanoma) | TGI (UACC-62 melanoma) | GI50 (KM12 colon) | TGI (KM12 colon) | GI50 (COLO 205 colon) | TGI (COLO 205 colon) | GI50 (MALME-3M melanoma) | TGI (MALME-3M melanoma) | GI50 (OVCAR-8 ovarian) | TGI (OVCAR-8 ovarian) | GI50 (IGROV1 ovarian) | TGI (IGROV1 ovarian)
1 | O=c1[nH]c(=O)n(Cc2ccc(C34CC5CC(CC(C5)C3)C4)c(O)c2)cc1F | 13.5 µM | 34.2 µM | 12.8 µM | 32 µM | 11.5 µM | 29.2 µM | 16.4 µM | 35.7 µM | 6.93 µM | 20.3 µM | 12.1 µM | 28.5 µM | 17.2 µM | 37.9 µM | 14.6 µM | 30.9 µM | – | – | – | –
2 | C/C(=C1\C(=O)Nc2ccccc21)c1cccc(/C(C)=C2/C(=O)Nc3ccccc32)n1 | 7.69 µM | > 100 µM | 40.2 µM | > 100 µM | 6.84 µM | > 100 µM | 0.692 µM | 5.4 µM | 4.56 µM | 23.2 µM | – | – | 7.32 µM | > 100 µM | – | – | 6.39 µM | 76.8 µM | 35.6 µM | > 100 µM
3 | CCCCCOC(=O)c1c(C)[nH]c(/C=C2\N=C(c3ccc[nH]3)C=C2OC)c1C | 0.0308 µM | 1.28 µM | 0.0429 µM | 0.619 µM | 0.0204 µM | 0.0481 µM | – | – | 0.0213 µM | 0.0491 µM | 0.0301 µM | 1.54 µM | 0.0331 µM | 1.04 µM | 0.32 µM | 1.97 µM | 0.0373 µM | 1.18 µM | 0.0494 µM | 1.52 µM
4 | O=c1oc2ccccc2cc1P(=O)(O)O | – | > 100 µM | – | > 100 µM | – | > 100 µM | – | > 100 µM | – | > 100 µM | – | – | – | > 100 µM | – | > 100 µM | – | > 100 µM | – | > 100 µM
5 | Clc1ccc(NCNC2Nc3ccccc3N2)cc1Cl | – | > 100 µM | – | > 100 µM | – | > 100 µM | – | > 100 µM | – | > 100 µM | – | 92.5 µM | – | > 100 µM | – | > 100 µM | – | 46.6 µM | – | –
6 | Oc1ccc(CCNc2nc3ccccc3c3[nH]c4ccccc4c23)cc1O | 1.66 µM | 3.44 µM | 15.9 µM | 33.2 µM | 2.62 µM | 7.28 µM | 8.99 µM | 37.4 µM | 3.86 µM | 13.4 µM | 1.59 µM | 4.19 µM | 2.27 µM | 6.8 µM | 2.23 µM | 6.28 µM | 1.9 µM | 3.85 µM | – | –
7 | O=C(O)c1ccccc1NS(=O)(=O)c1ccc(Cl)cc1 | – | > 100 µM | – | > 100 µM | – | > 100 µM | – | > 100 µM | – | > 100 µM | – | – | – | > 100 µM | – | > 100 µM | – | > 100 µM | – | > 100 µM
8 | CN(c1ccccc1)c1nc(=[N+](C)C)ss1 | – | > 100 µM | – | > 100 µM | – | > 100 µM | – | > 100 µM | – | > 100 µM | – | > 100 µM | – | – | – | > 100 µM | – | > 100 µM | – | > 100 µM
9 | O=c1c2ccccc2c(=O)n2n1-c1cccc(c1)CSSCc1cccc-2c1 | > 100 µM | > 100 µM | – | – | – | – | > 100 µM | > 100 µM | > 100 µM | > 100 µM | > 100 µM | > 100 µM | > 100 µM | > 100 µM | > 100 µM | > 100 µM | > 100 µM | > 100 µM | > 100 µM | > 100 µM
